Reference: US20250163076A1, “SYNTHESIS OF BRUTON'S TYROSINE KINASE INHIBITORS” (JANSSEN PHARMACEUTICA NV, priority 2022, published 2025)
Converted amounts (≈) assume the structure as drawn. Like-named read-outs stand apart in the source and are kept apart here. Marks after values point to notes of the source that are not given here.

Experiment: Solubility of P and M forms in solvent systems and their water mixtures
Assay type: physicochemical
Source text: Moreover, this solubility difference can be tuned by changing the ratio between 1-propanol/water. Therefore, M form can be efficiently converted even starting from a 1:1 d.r. mixture.

[1] = 1-Butanol/water (~6/94 w/w %), 10° C.
[2] = 1-Butanol/water (~6/94 w/w %), 25° C.
[3] = 1-Butanol/water (~6/94 w/w %), 50° C.
[4] = 1-Butanol/water (~80/20 w/w %), 10° C.
[5] = 1-Butanol/water (~80/20 w/w %), 25° C.
[6] = 1-Butanol/water (~80/20 w/w %), 50° C.
[7] = 1-Propanol/water (20/80 w/w %), 25° C.
[8] = 1-Propanol/water (20/80 w/w %), 50° C.
[9] = 1-Propanol/water (33/67 w/w %), 25° C.
[10] = 1-Propanol/water (33/67 w/w %), 50° C.
[11] = 1-Propanol/water (50/50 w/w %), 25° C.
[12] = 1-Propanol/water (50/50 w/w %), 50° C.
[13] = 1-Propanol/water (67/33 w/w %), 10° C.
[14] = 1-Propanol/water (67/33 w/w %), 25° C.
[15] = 1-Propanol/water (67/33 w/w %), 50° C.
[16] = 1-Propanol/water (80/20 w/w %), 10° C.
[17] = 1-Propanol/water (80/20 w/w %), 25° C.
[18] = 1-Propanol/water (80/20 w/w %), 50° C.
[19] = 2-butanol/water (~17/83 w/w %), 10° C.
[20] = 2-butanol/water (~17/83 w/w %), 25° C.
[21] = Isopropanol/water (~16/84 w/w %), 10° C.
[22] = Isopropanol/water (~16/84 w/w %), 25° C.
[23] = Isopropanol/water (~16/84 w/w %), 50° C.
[24] = Isopropanol/water (~28/72 w/w %), 10° C.
[25] = Isopropanol/water (~28/72 w/w %), 25° C.
[26] = Isopropanol/water (~28/72 w/w %), 50° C.
[27] = Isopropanol/water (~44/56 w/w %), 10° C.
[28] = Isopropanol/water (~44/56 w/w %), 25° C.
[29] = Isopropanol/water (~44/56 w/w %), 50° C.
[30] = Isopropanol/water (~61/39 w/w %), 10° C.
[31] = Isopropanol/water (~61/39 w/w %), 25° C.
[32] = Isopropanol/water (~61/39 w/w %), 50° C.
[33] = Propylene carbonate/water (93/7 w/w %), 10° C.
[34] = Propylene carbonate/water (93/7 w/w %), 25° C.
[35] = Propylene carbonate/water (93/7 w/w %), 50° C.

C=CC(=O)N[C@H]1CCC[C@H]1NC(=O)c1sc2nccc3c2c1NC(=O)N3c1cnc(CC(C)C)cc1C (single isomer, unassigned) [M form]
Solubility [1]: 0.2 mg/mL (≈ 0.386 mM) | Solubility [2]: 0.3 mg/mL (≈ 0.578 mM) | Solubility [3]: immiscible | Solubility [4]: 346.6 mg/mL (≈ 668 mM) | Solubility [5]: 334.0 mg/mL (≈ 644 mM) | Solubility [6]: immiscible | Solubility (1-Butanol, 10° C.): 397.5* mg/mL | Solubility (1-Butanol, 25° C.): 266.2 mg/mL (≈ 513 mM) | Solubility (1-Butanol, 50° C.): 444.7 mg/mL (≈ 857 mM) | Solubility (1-Propanol/water (20/80 w/w %), 10° C.): 4.2 mg/mL (≈ 8.1 mM) | Solubility [7]: 3.7 mg/mL (≈ 7.13 mM) | Solubility [8]: 4.9 mg/mL (≈ 9.45 mM) | Solubility [9]: 39.9 mg/mL (≈ 76.9 mM) | Solubility [10]: 285.9 mg/mL (≈ 551 mM) | Solubility [11]: 187.5 mg/mL (≈ 362 mM) | Solubility [12]: 276.3 mg/mL (≈ 533 mM) | Solubility [13]: 341.7 mg/mL (≈ 659 mM) | Solubility [14]: 336.5 mg/mL (≈ 649 mM) | Solubility [15]: 363.3 mg/mL (≈ 700 mM) | Solubility [16]: 394.0 mg/mL (≈ 760 mM) | Solubility [17]: 386.8 mg/mL (≈ 746 mM) | Solubility [18]: 394.5 mg/mL (≈ 761 mM) | Solubility (1-Propanol, 10° C.): 500.4 mg/mL (≈ 965 mM) | Solubility (1-Propanol, 25° C.): 265.4 mg/mL (≈ 512 mM) | Solubility [19]: 2.5 mg/mL (≈ 4.82 mM) | Solubility [20]: 1.7 mg/mL (≈ 3.28 mM) | Solubility (2-butanol/water (~17/83 w/w %), 50° C.): 0.2 mg/mL (≈ 0.386 mM) | Solubility (Isobutanol/water (~8/92 w/w %), 10° C.): 0.2 mg/mL (≈ 0.386 mM) | Solubility (Isobutanol/water (~8/92 w/w %), 25° C.): 0.2 mg/mL (≈ 0.386 mM) | Solubility (Isobutanol/water (~8/92 w/w %), 50° C.): 0.1 mg/mL (≈ 0.193 mM) | Solubility (Isobutanol, 10° C.): 272.5* mg/mL | Solubility (Isobutanol, 25° C.): 238.0 mg/mL (≈ 459 mM) | Solubility (Isobutanol, 50° C.): 389.4 mg/mL (≈ 751 mM) | Solubility [21]: 0.6 mg/mL (≈ 1.16 mM) | Solubility [22]: 0.6 mg/mL (≈ 1.16 mM) | Solubility [23]: 4.0 mg/mL (≈ 7.71 mM) | Solubility [24]: 3.0 mg/mL (≈ 5.78 mM) | Solubility [25]: 4.6 mg/mL (≈ 8.87 mM) | Solubility [26]: 10.0 mg/mL (≈ 19.3 mM) | Solubility [27]: 31.0 mg/mL (≈ 59.8 mM) | Solubility [28]: 31.0 mg/mL (≈ 59.8 mM) | Solubility [29]: >200 mg/mL | Solubility [30]: 126.0 mg/mL (≈ 243 mM) | Solubility [31]: 109.0 mg/mL (≈ 210 mM) | Solubility [32]: >200 mg/mL | Solubility [33]: 129.8 mg/mL (≈ 250 mM) | Solubility [34]: 123.9 mg/mL (≈ 239 mM) | Solubility [35]: 106.5 mg/mL (≈ 205 mM) | Solubility (Propylene carbonate, 10° C.): 163.1 mg/mL (≈ 314 mM) | Solubility (Propylene carbonate, 25° C.): 73.7 mg/mL (≈ 142 mM) | Solubility (Propylene carbonate, 50° C.): 107.0* mg/mL

C=CC(=O)N[C@H]1CCC[C@H]1NC(=O)c1sc2nccc3c2c1NC(=O)N3c1cnc(CC(C)C)cc1C (single isomer, unassigned) [P form]
Solubility [1]: 0.01 mg/mL (≈ 0.0193 mM) | Solubility [2]: 0.01 mg/mL (≈ 0.0193 mM) | Solubility [3]: immiscible | Solubility [4]: 18.2 mg/mL (≈ 35.1 mM) | Solubility [5]: 20.7 mg/mL (≈ 39.9 mM) | Solubility [6]: immiscible | Solubility (1-Butanol, 10° C.): 137.3 mg/mL (≈ 265 mM) | Solubility (1-Butanol, 25° C.): 132.8 mg/mL (≈ 256 mM) | Solubility (1-Butanol, 50° C.): 197.6 mg/mL (≈ 381 mM) | Solubility [7]: 0.4 mg/mL (≈ 0.771 mM) | Solubility [8]: 0.5 mg/mL (≈ 0.964 mM) | Solubility (1-Propanol/water (33/67 w/w %), 10 °C, aqueous with cosolvent or surfactant or cyclodextrin, thermodynamic from solid, 1-Propanol/water (33/67 w/w %), 10° C., read-out: Solubility): 2.2 mg/mL (≈ 4.24 mM) | Solubility [9]: 1.9 mg/mL (≈ 3.66 mM) | Solubility [10]: 1.8 mg/mL (≈ 3.47 mM) | Solubility [11]: 8.5 mg/mL (≈ 16.4 mM) | Solubility [12]: 15.6* mg/mL | Solubility [13]: 18.0 mg/mL (≈ 34.7 mM) | Solubility [14]: 20.8 mg/mL (≈ 40.1 mM) | Solubility [15]: 20.3* mg/mL | Solubility [16]: 24.8 mg/mL (≈ 47.8 mM) | Solubility [17]: 26.3 mg/mL (≈ 50.7 mM) | Solubility [18]: 32.3* mg/mL | Solubility (1-Propanol, 10° C.): 206.8 mg/mL (≈ 399 mM) | Solubility (1-propanol, 25 °C, organic solvent or mixture, 1-Propanol, 25° C., read-out: Solubility): 197 mg/mL (≈ 380 mM) | Solubility (1-propanol, 50 °C, organic solvent or mixture, 1-Propanol, 50° C., read-out: Solubility): 255 mg/mL (≈ 492 mM) | Solubility (1-propanol/water (50/50 w/w %), 10 °C, aqueous with cosolvent or surfactant or cyclodextrin, thermodynamic from solid, 1-Propanol/water (50/50 w/w %), 10° C., read-out: Solubility): 8.1 mg/mL (≈ 15.6 mM) | Solubility (2-butanol/water (~17/83 w/w %), 50 °C, aqueous with cosolvent or surfactant or cyclodextrin, 2-butanol/water (~17/83 w/w %), 50° C., read-out: Solubility): 0.2 mg/mL (≈ 0.386 mM) | Solubility [19]: 0.5 mg/mL (≈ 0.964 mM) | Solubility [20]: 0.3 mg/mL (≈ 0.578 mM) | Solubility (Isobutanol, 10° C.): 105.8 mg/mL (≈ 204 mM) | Solubility (Isobutanol, 25° C.): 102.2 mg/mL (≈ 197 mM) | Solubility (Isobutanol, 50° C.): 134.3 mg/mL (≈ 259 mM) | Solubility [21]: 0.1 mg/mL (≈ 0.193 mM) | Solubility [22]: 0.2 mg/mL (≈ 0.386 mM) | Solubility [23]: 0.3 mg/mL (≈ 0.578 mM) | Solubility [24]: 0.4 mg/mL (≈ 0.771 mM) | Solubility [25]: 0.7 mg/mL (≈ 1.35 mM) | Solubility [26]: 1.1 mg/mL (≈ 2.12 mM) | Solubility [27]: 2.0 mg/mL (≈ 3.86 mM) | Solubility [28]: 3.0 mg/mL (≈ 5.78 mM) | Solubility [29]: 2.0 mg/mL (≈ 3.86 mM) | Solubility [30]: 4.0 mg/mL (≈ 7.71 mM) | Solubility [31]: 6.0 mg/mL (≈ 11.6 mM) | Solubility [32]: 4.0 mg/mL (≈ 7.71 mM) | Solubility [33]: 10.9 mg/mL (≈ 21 mM) | Solubility [34]: 9.0 mg/mL (≈ 17.4 mM) | Solubility [35]: 8.6 mg/mL (≈ 16.6 mM) | Solubility (Propylene carbonate, 10° C.): 55.8 mg/mL (≈ 108 mM) | Solubility (isobutanol/water (~8/92 w/w %), 10 °C, aqueous with cosolvent or surfactant or cyclodextrin, Isobutanol/water (~8/92 w/w %), 10° C., read-out: Solubility): 0.1 mg/mL (≈ 0.193 mM) | Solubility (isobutanol/water (~8/92 w/w %), 25 °C, aqueous with cosolvent or surfactant or cyclodextrin, Isobutanol/water (~8/92 w/w %), 25° C., read-out: Solubility): 0.1 mg/mL (≈ 0.193 mM) | Solubility (isobutanol/water (~8/92 w/w %), 50 °C, aqueous with cosolvent or surfactant or cyclodextrin, Isobutanol/water (~8/92 w/w %), 50° C., read-out: Solubility): 0.1 mg/mL (≈ 0.193 mM) | Solubility (propylene carbonate, 25 °C, organic solvent or mixture, Propylene carbonate, 25° C., read-out: Solubility): 50.1 mg/mL (≈ 96.6 mM) | Solubility (propylene carbonate, 50 °C, organic solvent or mixture, Propylene carbonate, 50° C., read-out: Solubility): 97.3 mg/mL (≈ 188 mM)
